Experimental data from PubChem BioAssay AID2252 (Southern Research Specialized Biocontainment Screening …, 2010).

System: THP-1 viability, CellTiter-Glo luminescence, 72 h
Assay: PubChem AID 2252

**Q.** Which EC50 does the source give for O=c1ccc2cc3c([nH]c4ccc(Br)cc43)oc-2c1O here?
**A.** 18.9 µM

**Q.** Which EC50 does the source give for CCC(O)(CC)C(=O)N/N=C/c1cc(Br)cc(Br)c1O here?
**A.** 15.4 µM

**Q.** O=C(Nc1c2ccccc2nc2ccccc12)C(Cl)(Cl)Cl was tested. Which EC50 did it give?
**A.** 20 µM

**Q.** With OC(c1cc(C(F)(F)F)nc2c(C(F)(F)F)cccc12)C1CCCCN1 (configuration not stated) as the compound, how does the EC50 read?
**A.** 7.61 µM

**Q.** Which EC50 does the source give for Cc1ccc(C(c2cc(Cl)c3cccnc3c2O)N2CCN(C)CC2)cc1 (configuration not stated) here?
**A.** 4.95 µM

**Q.** Which EC50 does the source give for Cc1nn(-c2ccccc2)c(C)c1/C=N/n1c(-c2ccc(C(C)(C)C)cc2)n[nH]c1=S here?
**A.** 32.1 µM

**Q.** How did the EC50 turn out when Oc1c(CN2CCN(c3ccccn3)CC2)cc(Cl)c2cccnc12 was run?
**A.** 1.64 µM

**Q.** With O=C(C[n+]1cc(-c2ccc(Cl)c(Cl)c2)n2c1CCC2)N1c2ccccc2Sc2ccccc21 as the compound, how does the EC50 read?
**A.** 10.3 µM

**Q.** How did the EC50 turn out when Clc1ccc2c(c1)C(N1CCNCC1)Cc1ccccc1S2 (configuration not stated) was run?
**A.** 7.4 µM

**Q.** How did the EC50 turn out when NCC/C=C1/c2ccccc2CSc2ccccc21 was run?
**A.** 25.9 µM

**Q.** How did the EC50 turn out when COc1cccc(/C=C/C(=O)c2cccc([N+](=O)[O-])c2)c1OC was run?
**A.** 22.3 µM

**Q.** c1ccc2c(c1)OC(CCCN1CCCCC1)c1ccccc1S2 (configuration not stated) was tested. Which EC50 did it give?
**A.** 21.8 µM

**Q.** Which EC50 does the source give for COc1cccc(/C=N/NC(=O)CNC(=O)CCc2ccccc2)c1O here?
**A.** 21.7 µM

**Q.** With CCCN(CCC)CCNC(=O)C1CCN(Cc2nc(-c3ccc(Cl)cc3)oc2C)CC1 as the compound, how does the EC50 read?
**A.** 24.8 µM

**Q.** O=C(NC(=S)NNC(=O)c1ccco1)c1ccc(Br)cc1 was tested. Which EC50 did it give?
**A.** 19.7 µM

**Q.** How did the EC50 turn out when O=[N+]([O-])c1ccc(/C=N/NC(=S)Nc2ccc(Cl)cc2Cl)s1 was run?
**A.** 47.5 µM

**Q.** Cc1ccc(C(=O)N2C(=S)C(c3ccc(F)cc3)=NC23CCN(C)CC3)cc1 was tested. Which EC50 did it give?
**A.** 16.7 µM

**Q.** How did the EC50 turn out when N=c1n(CCN2CCCCC2)c2ccccc2n1CC(=O)c1ccc(Cl)c(Cl)c1 was run?
**A.** 20.4 µM

**Q.** Which EC50 does the source give for CCCCCNc1nc(N2CCCC2)c2c(c1C#N)CCN(C)C2 here?
**A.** 23.3 µM

**Q.** With CC1CCCC(NC(=O)COC(=O)Cc2c[nH]c3ccccc23)C1C (configuration not stated) as the compound, how does the EC50 read?
**A.** < 0.1 µM

**Q.** How did the EC50 turn out when COc1ccc(Nc2nc(NCC3CCCO3)c3ccccc3n2)c(OC)c1 (configuration not stated) was run?
**A.** 9.34 µM

**Q.** Which EC50 does the source give for COc1cc(Br)cc(/C=N/c2ncn[nH]2)c1O here?
**A.** 49.9 µM

**Q.** CO[C@H]1C=CO[C@@]2(C)Oc3c(C)c(O)c4c(O)c(c(C=NN5CCN(C)CC5)c(O)c4c3C2=O)NC(=O)C(C)=CC=C[C@H](C)[C@H](O)[C@@H](C)[C@@H](O)[C@@H](C)[C@H](OC(C)=O)[C@@H]1C was tested. Which EC50 did it give?
**A.** 42.4 µM

**Q.** How did the EC50 turn out when CCOc1cc(Br)cc(/C=N/NC(=O)c2cccnc2)c1O was run?
**A.** 7.58 µM

**Q.** CN(C)CCNC(=O)c1ccc(COc2ccc(Cl)cc2Cl)cc1 was tested. Which EC50 did it give?
**A.** 13.8 µM

**Q.** With Cc1ccc(N=Cc2cc(Br)cc(Cl)c2O)cc1 as the compound, how does the EC50 read?
**A.** 49.5 µM

**Q.** With CCCCCCCCCCOC(=O)Cn1c(COc2cccc(OC)c2)[n+](C)c2ccccc21 as the compound, how does the EC50 read?
**A.** 2.38 µM

**Q.** How did the EC50 turn out when Cc1cccc(OCC(O)Cn2c(=N)n(CCN3CCCCC3)c3ccccc32)c1 (configuration not stated) was run?
**A.** 16.1 µM

**Q.** How did the EC50 turn out when CCCCCCCCCCCCCCCC[N+](C)(C)CC was run?
**A.** 0.48 µM

**Q.** How did the EC50 turn out when OCCNc1nc(Nc2ccc(Br)cc2)nc2ccccc12 was run?
**A.** 0.62 µM

**Q.** Which EC50 does the source give for COc1cccc(/C=N\NC(=O)Cn2nnc3ccccc32)c1O here?
**A.** 14.6 µM

**Q.** For O=C(CN1CC[n+]2c(-c3cccs3)csc21)c1ccc(-c2ccccc2)cc1, which EC50 is on record?
**A.** 13 µM

**Q.** Which EC50 does the source give for O=C(N/N=C/c1ccc([N+](=O)[O-])s1)C(O)c1ccccc1 (configuration not stated) here?
**A.** 12.9 µM

**Q.** For O=c1[nH]c(-c2ccccn2)nc(C(F)(F)F)c1Br, which EC50 is on record?
**A.** 11.5 µM

**Q.** Which EC50 does the source give for COc1cc2c(cc1O)[C@H](Cc1ccc(Oc3cc(C[C@@H]4NCCc5cc(OC)c(O)cc54)ccc3O)cc1)NCC2 here?
**A.** 48.3 µM

**Q.** How did the EC50 turn out when O=C1C(=O)c2ccccc2-c2ccccc21 was run?
**A.** 2.22 µM

**Q.** Cc1cnc(C(=O)Nc2nnc(C)s2)cn1 was tested. Which EC50 did it give?
**A.** < 0.1 µM

**Q.** For O=C(c1cccs1)c1no[n+]([O-])c1C(=O)c1cccs1, which EC50 is on record?
**A.** 1.89 µM

**Q.** CCOc1cc(CNCCCN2CCOCC2)cc(Br)c1OCC(=O)Nc1cccc(C(F)(F)F)c1 was tested. Which EC50 did it give?
**A.** 8.24 µM

**Q.** With O=c1[nH]c(=S)ccn1C1OC(CO)C(O)C1O (configuration not stated) as the compound, how does the EC50 read?
**A.** 16.3 µM

**Q.** How did the EC50 turn out when Cc1nn(Cc2ccccc2Cl)c2sc(C(=O)Nc3ccccc3N3CCOCC3)cc12 was run?
**A.** 20.4 µM

**Q.** COc1ccc(/C=C/C(=O)NC(=S)NNC(=O)c2cnccn2)cc1 was tested. Which EC50 did it give?
**A.** 2.81 µM

**Q.** For O=C(CSc1nc2ccccc2s1)N/N=C/c1cc([N+](=O)[O-])ccc1O, which EC50 is on record?
**A.** 27.5 µM

**Q.** Which EC50 does the source give for CCOc1cc(CNC(C)(C)CO)cc(Br)c1OCc1ccc(Cl)cc1Cl here?
**A.** 5.53 µM

**Q.** How did the EC50 turn out when CC(NCc1ccc(-c2ccccc2)cc1)C(O)c1ccccc1 (configuration not stated) was run?
**A.** 5.49 µM

**Q.** O=C(N/N=C\C=C\c1ccc([N+](=O)[O-])o1)c1cccs1 was tested. Which EC50 did it give?
**A.** 34.8 µM

**Q.** Which EC50 does the source give for CC(=O)NC(c1ccc(Cl)cc1Cl)c1ccc2cccnc2c1O (configuration not stated) here?
**A.** 7.25 µM

**Q.** Which EC50 does the source give for CCN1/C(=C/C=C/C=C/c2sc3ccccc3[n+]2CC)Sc2ccccc21 here?
**A.** 7.7 µM

**Q.** O=C(Nc1c(Cl)ccc2nsnc12)c1ccc([N+](=O)[O-])o1 was tested. Which EC50 did it give?
**A.** 3.84 µM

**Q.** For Nc1nc(F)nc2c1ncn2[C@@H]1O[C@H](CO)[C@@H](O)[C@H]1O, which EC50 is on record?
**A.** 0.35 µM

**Q.** CN1CCN(CCCN2c3ccccc3Sc3ccc(C(F)(F)F)cc32)CC1 was tested. Which EC50 did it give?
**A.** 10.3 µM

**Q.** Which EC50 does the source give for CCSc1ccc2c(c1)N(CCCN1CCN(C)CC1)c1ccccc1S2 here?
**A.** 12.8 µM

**Q.** How did the EC50 turn out when CCn1cc(C(=O)O)c(=O)c2cc(F)c(N3CCN(C(=S)NC(=O)c4cccc(C)c4)CC3)cc21 was run?
**A.** < 0.1 µM

**Q.** Which EC50 does the source give for COc1ccc(/C=N/NC(=O)c2cc3c(OC)ccc(OC)c3[nH]2)cc1O here?
**A.** 2.53 µM

**Q.** CN(C)CCCNc1c2ccccc2nc2ccccc12 was tested. Which EC50 did it give?
**A.** 3.46 µM

**Q.** With Cc1ccc(C(=O)NCC(=O)NCCc2ccc(S(N)(=O)=O)cc2)s1 as the compound, how does the EC50 read?
**A.** < 0.1 µM

**Q.** How did the EC50 turn out when O=C(CC1NCCc2ccccc21)Nc1ccc(Oc2ccccc2)cc1 (configuration not stated) was run?
**A.** 14.3 µM
